# Measured values published in patent publication US6875608B1, “Propagation and/or derivation of embryonic stem cells” (University of Edinburgh, priority 1998, dated 2005).
# T1: GRgp(Y118F) chimeric receptor (UniProt Q00560+Q99062, Y757F)
# T1 construct: fusing the extracellular domain of the human G-CSFR to an EcoRI fragment of mouse gp130; an EcoRI fragment of mouse gp130 containing the transmembrane domain and the entire cytoplasmic region; expressed in transfected cells
# T1 sequence (Q99062+Q00560 with tags, fused parts or gaps Q00560:Y757F): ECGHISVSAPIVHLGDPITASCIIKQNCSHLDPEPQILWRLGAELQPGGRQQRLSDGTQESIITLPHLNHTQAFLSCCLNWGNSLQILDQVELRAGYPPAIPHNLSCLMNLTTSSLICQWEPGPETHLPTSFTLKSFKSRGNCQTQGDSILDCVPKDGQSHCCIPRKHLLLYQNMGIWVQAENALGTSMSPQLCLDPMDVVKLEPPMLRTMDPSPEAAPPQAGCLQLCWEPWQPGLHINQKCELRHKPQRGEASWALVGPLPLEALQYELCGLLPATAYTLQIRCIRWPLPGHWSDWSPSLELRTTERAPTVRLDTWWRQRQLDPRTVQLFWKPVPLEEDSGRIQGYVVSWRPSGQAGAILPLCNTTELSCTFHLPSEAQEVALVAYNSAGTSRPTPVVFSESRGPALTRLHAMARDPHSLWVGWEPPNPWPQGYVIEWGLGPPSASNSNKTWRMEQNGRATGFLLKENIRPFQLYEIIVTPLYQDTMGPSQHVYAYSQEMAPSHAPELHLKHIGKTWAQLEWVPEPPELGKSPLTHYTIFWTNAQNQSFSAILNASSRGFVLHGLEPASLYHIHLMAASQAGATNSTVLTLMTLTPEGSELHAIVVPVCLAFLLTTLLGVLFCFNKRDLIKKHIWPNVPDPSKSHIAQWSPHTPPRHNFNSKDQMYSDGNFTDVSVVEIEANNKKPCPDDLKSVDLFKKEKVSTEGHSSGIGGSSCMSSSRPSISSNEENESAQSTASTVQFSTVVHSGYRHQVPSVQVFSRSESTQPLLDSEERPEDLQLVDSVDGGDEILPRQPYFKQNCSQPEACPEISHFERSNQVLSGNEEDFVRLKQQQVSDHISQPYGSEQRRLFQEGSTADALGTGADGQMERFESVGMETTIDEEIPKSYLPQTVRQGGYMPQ
# Columns and labels:
# [1] = system: ZIN40 ES cells; assay: Chimaera analysis of ES cell pluripotency; type: in vivo; details: 48 hours LIF plus 25 μM PD098059, 24 hours LIF only, injected into mouse blastocysts, day 9.5
# Protocol: ZIN40 ES cells were treated wit 25 μM PD098059 plus 5 U/ml LIF for 48 hours, re-fed with medium containing LIF for a further 24 hours and than microinjected into C57BL/6 blastcysts. Embryos were collected at day 9.5 of pregnancy and stained for β-galactosidase activity.
# ZIN40 ES cells were injected into C57BL/6 blastocysts and transferred into pseudopregnant mice. Mice were sacrificed at day 9.5 of pregnancy and the embryos were stained with X-gal.
# We therefore determined whether ES cells propagated in the absence of gp130-dependent ERK. signaling have the capacity to incorporate into the developing embryo and differentiate appropriately. Cells were cultured at low density (1000 cell/cm^2) for 48 hours in the presence of LIF plus 25 μM PD098059, or in the absence of LIF. They were then re-fed with medium containing LIF but lacking the inhibitor for a further 24 hours before microinjection into mouse blastocysts. ZIN40 cells were used in this experiment, since they carry a nuclear localised β-galactosidase marker that is widely expressed in differentiated cell types. […] However, cells cultured in the absence of LIF for 48 hours were incapable of colonizing the embryo.
# [2] = system: IOUD2 ES cells; assay: Aggregate (embryoid body) culture, staining for Oct4 β-galactosidase; type: cell-based, mouse
# Text: Aggregation induces ES cells to differentiate and form structures known as embryoid bodies that contain multiple differentiated cell types. Undifferentiated cells are largely or wholly eliminated during embryoid formation due to induced differentiation and/or apoptosis.
# IOUD2 ES cells, which carry a targeted integration of βgeo into the Oct4 locus were used to enable visualisation of undifferentiated cells by histochemical staining for β-galactosidase. Aggregates were formed in hanging drops by seeding 100 cells/20 μl drop in the presence of 0, 25, 50, 75 or 100 μm PD089059. Aggregates were maintained for 6 days, then transferred to gelatin-coated dishes and allowed to attach overnight. Cultures were then fixed and stained for β-galactosidase activity. In the absence of the Mek inhibitor, the embryoid bodies were well differentiated and very few Oct4 β-galactosidase expressing cells were present in the outgrowths. […] At PD089059 concentrations of 75-100 μm, the great majority of cells were undifferentiated.
# [3] = system: ERK1 and ERK2; assay: PD098059 dependent inhibition of ERK activation (immunoblot with phosphospecific anti-ERK antibodies); type: cell-based, mouse; details: GRgp(278) cells, 48 hours inhibitor plus LIF, then G-CSF 30 ng/ml 10 minutes
# Protocol: For analysis of STAT3 and ERK phosphorylation, 1×10^6 ES cells were plated per well of 6-well dishes. Cells were serum starved and treated with cytokines as described above and then lysed in 100 μl SDS sample buffer. Ten microlitre aliquots were fractionated on a 10% SDS polyacrylamide gel, electroblotted onto nitrocellulose and probed with anti-ERK and anti-STAT3 antibodies according to the directions provided by supplier (New England Biolabs).
# The continued proliferation of undifferentiated ES cells at inhibitory concentrations of PD098059 confirms that gp130-dependent activation of ERK1 and ERK2 is not required for the propagation of ES cells.
# [4] = system: D027 ES cells
# Protocol: Data were collected as means±s.e.m for duplicate determinations of triplicate samples normalized relative to the response to LIF. […] Data was collected as means±s.e.m for duplicate determinations of triplicate samples normalized relative to the maximum response of cells to treatment with LIF(111 U/ml) plus vehicle.
# Expression of β-galactosidase from the Oct-4 locus in D027 cells was quantitated in an ONPG assay. Cells were plated at 5000 per well in a 24-well dishes and cultured for 6 days in the presence or absence of cytokine. When cells were treated with PD098059, they were plated at 2500 per well and cultured overnight in normal growth medium prior to addition of the inhibitor. On day 6, cells were washed once with PBS and lysed in 0.4 ml of 0.25 M Tris pH 7.5, 0.5 mM DTT, 0.5 % NP40. Lysate (40 μl) was mixed with 100 μl of ONPG buffer (60 mM Na2HPO4, 40 mM NaH2PO4, 10 mM KCl, 1 mM MgCl2, 50 mM 2-mercaptoethanol, 1.2 mM ONPG) in a microtitre plate, incubated at 37° C. for 2-4 hours and the absorbance was read at 420 nm. All assays were performed in triplicate.
# D027 cells have a LacZ gene inserted within the stem cell specific gene, Oct-4. As a consequence, expression of this integrated reporter gene is restricted to undifferentiated ES cells and the resulting β-galactosidase activity provides a measure of stem cell self-renewal.
# To test this hypothesis, D027 cells were cultured in the presence of the specific MEK inhibitor, PD098059. A sub-saturating concentration of LIF (5 U/ml) was used in these experiments to increase these sensitivity of the assay to changes in self-renewal signaling.
# Self-renewal ES cells was assayed flowing treatment with 0.1-100 U/ml LIF either in the presence of 25 μM PD098059 or vehicle (02% DMSO).
# [5] = target: T2, GRgp(278) chimeric receptor (UniProt Q00560+Q99062); assay: Self-renewal response of GRgp130 transfectants to G-CSF; type: cell-based; details: GRgp(278) transfectants, 6 days, 300 fg-30 ng/ml G-CSF
# T2 construct: fusing the extracellular domain of the human G-CSFR to an EcoRI fragment of mouse gp130; an EcoRI fragment of mouse gp130 containing the transmembrane domain and the entire cytoplasmic region; expressed in transfected cells
# T2 sequence (Q00560 640-917 limits assumed, change not shown, one chain of several): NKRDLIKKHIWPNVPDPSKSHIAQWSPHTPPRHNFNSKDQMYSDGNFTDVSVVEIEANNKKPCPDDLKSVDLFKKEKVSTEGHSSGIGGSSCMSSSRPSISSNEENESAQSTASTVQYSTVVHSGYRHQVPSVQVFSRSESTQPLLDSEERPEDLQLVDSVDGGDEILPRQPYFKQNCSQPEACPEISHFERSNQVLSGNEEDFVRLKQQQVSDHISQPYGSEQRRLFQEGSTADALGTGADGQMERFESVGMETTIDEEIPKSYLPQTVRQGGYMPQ
# Protocol: (§1) Photomicrographs were taken of X-gal stained, representive colonies formed by GRgp(278) and GRgp(Y118F) transfectants after 6 days culture with 300 fg, 30 pg and 30 ng/ml of G-CSF. Photomicrographs were also taken of representative colonies formed by GRgp(278) and GRgp(Y118F) transfectants after 6 days culture with no cytokine, IL-6 (100 ng/ml+sIL-6R), G-CSF(30 ng/ml) or, IL-6(100 ng/ml+sIL-6R) and G-CSF(30 ng/ml).
# (§2) All assays were performed in triplicate.
# [6] = target: T1, GRgp(Y118F) chimeric receptor; assay: as above; type: cell-based; details: GRgp(Y118F) ES cells, 6 days, 300 fg-30 ng/ml G-CSF
# Protocol: as §1, §2
molecule,measurement,setting,value
COc1cccc(-c2cc(=O)c3ccccc3o2)c1N [PD098059],contribution of treated ES cells to chimaeras (β-galactosidase staining of mid-gestation embryos),[1],contributed to chimaeras
same,representation of undifferentiated β-galactosidase positive cells,"[2]; 0, 25, 50, 75 or 100 μm, aggregates 6 days, no inhibitor as control",increased in a dose dependent fashion
same,concentration at which the great majority of cells were undifferentiated,[2]; aggregates maintained 6 days,75 to 100 µM
same,concentration at which G-CSF dependent phosphorylation of ERK1 and ERK2 was effectively blocked,[3],25 µM
same,concentration range over which G-CSF dependent phosphorylation of ERK1 and ERK2 was progressively reduced,[3],3 to 12 µM
same,effect on dose response of ES cells to LIF (β-galactosidase activity),"[4]; 25 μM PD098059 versus vehicle, 0.1-100 U/ml LIF",increased the level of β-galactosidase activity at all concentrations of LIF
same,effect on ES cell self-renewal compared with vehicle alone,"[4]; 3-25 μM PD098059, sub-saturating LIF (5 U/ml)",did not inhibit self-renewal
same,effect on differentiation of ES cells in the absence of LIF,[4]; absence of LIF,did not block the differentiation of ES cells
same,concentration at which maximum level of self-renewal is achieved,"[4]; sub-saturating LIF (5 U/ml), dose dependent increase",12 to 25 µM
"G-CSF: cytokine ligand used to stimulate chimaeric G-CSFR/gp130 receptors in ES cell transfectants (protein, UniProt P09919 31-207, looked up) Granulocyte …: TPLGPASSLPQSFLLKCLEQVRKIQGDGAALQEKLVSECATYKLCHPEELVLLGHSLGIPWAPLSSCPSQALQLAGCLSQLHSGLFLYQGLLQALEGISPELGPTLDTLQLDVADFATTIWQQMEELGMAPALQPTQGAMPAFASAFQRRAGGVLVASHLQSFLEVSYRVLRHLAQP",G-CSF concentration at which self-renewal reaches a plateau,[5],3 to 30 ng/mL
same,G-CSF concentration at which maximal self-renewal response was achieved,[6],30 pg/mL
